Test [1] has as its system B16 melanoma lung metastasis in C57BL/6 mice. The test can be described thus: Senescence-enhanced B16 lung metastasis model. In kind it is in vivo, mouse. From the text:
FIG. 4. Efficacy of A1.1 analogs in the senescence-enhanced B16 metastasis model. (A) Quantification of metastatic nodules by H&E morphometric analysis, and the resulting reduction in tumor burden (%) compared to vehicle control. (B) Quantitation morphometric analysis of lungs excised from irradiated mice treated with analogs of A1.1 post-inoculation of B16 cell intravenously, along with quantitation of morphometric analysis, are provided. (C) In vitro testing of A1.1 and analogs against the growth and viability of B16 cells, as assessed by the resazurin viability assay after 72 hour exposure to compounds compared to non-treated controls.
The role of senescent cells in the promotion of metastatic potential of cancer cells has also been described [Patent WO 2013090645 A1; Campisi, J. (2015). Cancer and Aging: Rival Demons]. […] To test the efficacy of A1.1, irradiated (11 Gy followed by bone-marrow transplantation) and non-irradiated C57BL/6 mice received B16 melanoma cells via tail vein injection were subsequently (72 hours later) administered A1.1 (20 mg/kg) intraperitoneally once a day for 5 consecutive days.
Synthesized analogs were also tested in vivo, to assess whether optimized structures are capable of showing activity against senescence-mediated B16 lung metastasis in irradiated mice (FIG. 4B). Analogs A1.1, A1.12, A1.13, A1.14, A1.15, and A1.6 were administered at 20 mg/kg intraperitoneally for 5 consecutive days. In addition to A1.1, treatment with analogs A1.12, A1.14 and A1.15 at 20 mg/kg reduced the metastatic burden in the lungs of irradiated mice by more than 2-fold.

In test [2] the test system is p16(Ink4a) in mLF and mVAT fibroblasts. Nature of the test: Modulation of p16(Ink4a) in mouse lung and visceral adipose tissue-derived fibroblasts. It is filed as cell-based. As to conditions: for Modulation of p16(Ink4a): mLF and mVAT Senescent: 20Gy irradiation for senescence induction; for Modulation of p16(Ink4a): mLF and mVAT Proliferating: without irradiation. The text has this: We next sought to determine whether immunomodulatory agents, and other small molecules, were capable of selectively modulating p16(Ink4a) expression in SAMs by comparing their effects on p16 expression in SAMs to that of mouse lung fibroblasts (mLF) and mouse visceral adipose tissue-derived fibroblasts (mVAT). […] Immunomodulatory agents cause little to no change in p16 expression in fibroblasts. For example, mouse fibroblasts are reported to respond to LPS and IL-4 (expressing TLR4 and IL-4R, respectively), yet these agents are unable to modulate p16 in fibroblasts.

The test system of test [3] is adipose-derived mesenchymal stromal cells (AdMSC) from p16Ink4a/Luc mice. Nature of the test: Luciferase and β-galactosidase activities in senescent and proliferating adipose-derived mesenchymal stromal cells. It is filed as cell-based, mouse. The text has this:
FIG. 10. Elevated p16(Ink4a) and β-galactosidase is regulated by immunomodulatory agents in macrophages, but not in mesenchymal SCs. Primary cultures of adipose-derived mesenchymal stromal cells (AdMSC) isolated from p16^Ink4a/Luc mice were irradiated (20 Gy) and cultured for 10 days for senescence induction. Mock irradiated cells were used as a proliferating cell control. Response of senescent and proliferating AdMSCs to immunomodulatory agents were compared to that of peritoneal lavage cells elicited by our alginate bead model. A-D) Dose-response curves of LPS (top panels: […]) and Poly(I:C) (bottom panels: C&D) on p16(Ink4a) promoter-dependent luciferase activity (left panels: A&C) and beta-galactosidase activity measured via 4-MUG hydrolysis (right panels: B&D) after 72 hr treatment. No effect on viability was observed via CyQuant Direct assay (>80% viability). Results are shown as the mean±standard deviation for at least 3 experiments.
Primary cultures of adipose-derived mesenchymal stromal cells (mAdMSC) were established from the stromal vascular fraction of inguinal adipose tissues of young p16^LUC mice, as described. Isolated adherent cultures were maintained in DMEM/F12 medium supplemented with 15% FBS and 1× anti-biotic/anti-mycotic solution (Thermo Fisher Scientific) in a tri-gas tissue culture incubator at 37° C., 5% CO2 and 3% O2. Medium was change twice per week, and cell passaging performed when cells reached ˜80-90% confluency. For induction of senescence, passage 1 cells were irradiated in suspension at 20 Gy, and replated cultures were maintained at 21% 02.
We investigated whether the mechanisms regulating the expression of these traits in macrophages were similar to those found in SCs. Using cells isolated from p16^Ink4a/Luc mice, the dose-dependent response of luciferase and β-galactosidase activities to immunomodulatory stimuli in macrophages was compared to that of proliferating and irradiation-induced senescent adipose-derived mesenchymal stromal cells. […] LPS stimulation of alginate bead model-elicited macrophages reduced luciferase activity, with maximal inhibition (˜85%) observed at concentrations ≥1 ng/mL (FIG. 10A). In addition, β-galactosidase activity was reduced by 40% at 10 ng/mL (FIG. 10B).
In contrast, luciferase and β-galactosidase activities were unaltered in senescent and proliferating mesenchyme in response to LPS (up to 1 μg/mL) (FIGS. 10A&B).

Regarding `CCOC(=O)c1sc(SCc2ccccc2)c2c1CC(c1ccc(OC)cc1)C/C2=N\O` (stereo not shown) [Example A1.1], the “tumor burden in non-irradiated animals” value in test [1] (20 mg/kg intraperitoneally, 5 consecutive days, non-irradiated mice) is on record as “did not affect”.

In the case of `COc1ccc(C2CC(=NO)c3c(SCc4ccccc4)sc(C(=O)NCc4cccc(F)c4)c3C2)cc1` (stereo not shown) [Example A1.6, 3-(Benzylthio)-N-(3-fluorobenzyl)-4-(hydroxyimino)-6-(4-methoxyphenyl)-4,5,6,7-tetrahydrobenzo[c]thiophene-1-carboxamide], in test [2], the “Modulation of p16(Ink4a): mLF and mVAT Senescent” value is “no change”; the “Modulation of p16(Ink4a): mLF and mVAT Proliferating” value was “no change”. For the same molecule, the “reduction of B16 metastatic load in the lungs of irradiated mice vs vehicle” value in test [1] (20 mg/kg intraperitoneally once a day for 5 consecutive days, irradiated (11 Gy) C57BL/6 mice) is “did not show a substantial decrease”.

For `O=C(NCCCc1cn[nH]c1)c1ccc(-c2ccncc2)c(C#Cc2ccc(F)cc2)c1` [OT-82], in test [2], the “Modulation of p16(Ink4a): mLF and mVAT Senescent” value is given as “no change”; the “Modulation of p16(Ink4a): mLF and mVAT Proliferating” value was “no change”.

In the case of IFN-α, the “p16(Ink4a) response of senescent vs proliferating mesenchymal cells” value in test [3] is reported as “lacking a differential response”.

For IL-4: M2-polarizing cytokine, the “p16(Ink4a) response of senescent vs proliferating mesenchymal cells” value in test [3] is reported as “lacking a differential response”. In addition, in test [2], the “Modulation of p16(Ink4a): mLF and mVAT Senescent” value is “no change”; the “Modulation of p16(Ink4a): mLF and mVAT Proliferating” value is “no change”.

In the case of IL-13: M2-polarizing cytokine, in test [3], the “p16(Ink4a) response of senescent vs proliferating mesenchymal cells” value was “lacking a differential response”. Also, in test [2], the “Modulation of p16(Ink4a): mLF and mVAT Senescent” value was “no change”; the “Modulation of p16(Ink4a): mLF and mVAT Proliferating” value was “no change”.

For Poly(I:C), in test [2], the “Modulation of p16(Ink4a): mLF and mVAT Senescent” value is “no change”; the “Modulation of p16(Ink4a): mLF and mVAT Proliferating” value is on record as “no change”.

B1: IFN-γ: type II interferon, M1-inducing agent (protein, UniProt P01579 24-161, looked up)
Interferon gamma: QDPYVKEAENLKKYFNAGHSDVADNGTLFLGILKNWKEESDRKIMQSQIVSFYFKLFKNFKDDQSIQKSVETIKEDMNVKFFNSNKKKRDDFEKLTNYSVTDLNVQRKAIHELIQVMAELSPAAKTGKRKRSQMLFRG
For B1, in test [3], the “p16(Ink4a) response of senescent vs proliferating mesenchymal cells” value is “lacking a differential response”.
